Key:
[1] = 1-Octanol-water partition coefficient, log P of the compound; format: physicochemical
[2] = Critical micelle concentration of the compound; format: ADME
[3] = molecular target: Albumin (Bos taurus, UniProt P02769); experiment: Binding affinity to bovine serum albumin; settings: cattle, isolated protein
Chain of Albumin (P02769 whole entry): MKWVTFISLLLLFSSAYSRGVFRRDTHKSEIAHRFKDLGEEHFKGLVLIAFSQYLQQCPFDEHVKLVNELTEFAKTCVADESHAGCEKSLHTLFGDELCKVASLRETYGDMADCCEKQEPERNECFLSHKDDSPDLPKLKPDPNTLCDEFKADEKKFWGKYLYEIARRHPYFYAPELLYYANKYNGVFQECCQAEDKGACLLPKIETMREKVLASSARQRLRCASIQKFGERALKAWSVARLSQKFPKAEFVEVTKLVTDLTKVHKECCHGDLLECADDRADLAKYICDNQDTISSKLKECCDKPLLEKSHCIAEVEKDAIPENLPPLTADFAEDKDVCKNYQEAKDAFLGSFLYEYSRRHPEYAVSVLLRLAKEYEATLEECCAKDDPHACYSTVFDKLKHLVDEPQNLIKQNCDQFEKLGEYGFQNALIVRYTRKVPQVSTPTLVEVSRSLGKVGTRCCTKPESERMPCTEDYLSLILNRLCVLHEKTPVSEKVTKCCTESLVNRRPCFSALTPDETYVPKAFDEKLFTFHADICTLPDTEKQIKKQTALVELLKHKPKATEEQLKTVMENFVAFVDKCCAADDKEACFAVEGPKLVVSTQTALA

SMILES | logP [1] | log1/CMC [2] | log K [3]
CCCCCC[N+](C)(C)Cc1ccccc1 | -1.53 |  | 
CCCCCCCC[N+](C)(C)Cc1ccccc1 | -0.29 |  | 
CCCCCCCCCCCCCCCCCCC[N+](C)(C)Cc1ccccc1.[Cl-] |  | 4.74 | 
CC[N+](C)(C)Cc1ccccc1 | -3.38 |  | 
CCCCCCCCCCCC[N+](C)(C)Cc1ccccc1.[Cl-] [BENZODODECINIUM CHLORIDE] |  | 2.16 | 4.26
CCCCCCCCCCCCCCCCCC[N+](C)(C)Cc1ccccc1.[Cl-] |  | 4.48 | 
CCCCCCCCCC[N+](C)(C)Cc1ccccc1.[Cl-] |  | 1.47 | 5
CCCC[N+](C)(C)Cc1ccccc1 | -1.85 |  | 
CCCCCCCCCCCCCCCCC[N+](C)(C)Cc1ccccc1.[Cl-] |  | 4 | 3.55
CCCCCCCCCCCCCCC[N+](C)(C)Cc1ccccc1.[Cl-] |  | 3.22 | 3.57
CCCCCCCCCCCCCCCC[N+](C)(C)Cc1ccccc1.[Cl-] [CETALKONIUM CHLORIDE] |  | 3.62 | 3.49
CCCCCCCC[N+](C)(C)Cc1ccccc1.[Cl-] |  | 0.67 | 4.82
CCCCCCCCCCCCCC[N+](C)(C)Cc1ccccc1.[Cl-] [MIRISTALKONIUM CHLORIDE] |  | 2.92 | 3.51
CCCCCCCCCCCCC[N+](C)(C)Cc1ccccc1.[Cl-] [BENZALKONIUM CHLORIDE] |  | 2.57 | 3.85
CCCCCCCCCCC[N+](C)(C)Cc1ccccc1.[Cl-] |  | 1.85 | 4.55

Source: ChEMBL document CHEMBL3272310, “Effect of chain length on critical micelle formation and protein binding of quaternary ammonium compounds” (J Med Chem, 1976)
